Reference: ChEMBL document CHEMBL1671651, “Azithromycin in Pseudomonas aeruginosa biofilms: bactericidal activity and selection of nfxB mutants” (2009)

Assays:
Format in all cases: functional
[1] = test system: Pseudomonas aeruginosa; assay: Antimicrobial activity against mucA::lox-deficient Pseudomonas aeruginosa PAOMAB biofilm harboring nfxB G125T mutant gene selected at 0.5 ug/ml of azithromycin after 1 passages by Etest method
[2] = test system: Pseudomonas aeruginosa; assay: Antimicrobial activity against mutS::lox-deficient Pseudomonas aeruginosa PAOMSA biofilm harboring nfxB T86C mutant gene selected at 4 ug/ml of azithromycin after 4 passages by Etest method
[3] = test system: Pseudomonas aeruginosa; assay: Antimicrobial activity against mutS::lox-deficient Pseudomonas aeruginosa PAOMSB biofilm harboring nfxB T380C mutant gene selected at 0.5 ug/ml of azithromycin after 2 passages by Etest method
[4] = test system: Pseudomonas aeruginosa; assay: Antimicrobial activity against mutS::lox-deficient Pseudomonas aeruginosa PAOMSA biofilm harboring nfxB C116T mutant gene selected at 1 ug/ml of azithromycin after 1 passages by Etest method
[5] = test system: Pseudomonas aeruginosa; assay: Antimicrobial activity against mucA::lox, mutS::lox-deficient Pseudomonas aeruginosa PAOMSAB biofilm harboring nfxB C25T mutant gene selected at 1 ug/ml of azithromycin after 2 passages by Etest method
[6] = test system: Pseudomonas aeruginosa; assay: Antimicrobial activity against mucA::lox, mutS::lox-deficient Pseudomonas aeruginosa PAOMSAA biofilm harboring nfxB C89T mutant gene selected at 4 ug/ml of azithromycin after 6 passages by Etest method
[7] = test system: Pseudomonas aeruginosa; assay: Antimicrobial activity against mucA::lox, mutS::lox-deficient Pseudomonas aeruginosa PAOMSAA biofilm harboring nfxB T86C mutant gene selected at 4 ug/ml of azithromycin after 2 passages by Etest method
[8] = test system: Pseudomonas aeruginosa; assay: Antimicrobial activity against Pseudomonas aeruginosa PAO1 A biofilm harboring duplication mutation at nucleotide 333 in nfxB gene selected at 0.5 ug/ml of azithromycin by Etest method
[9] = test system: Pseudomonas aeruginosa; assay: Antimicrobial activity against mucA::lox, mutS::lox-deficient Pseudomonas aeruginosa PAOMSAA biofilm harboring nfxB C89T mutant gene selected at 0.5 ug/ml of azithromycin after 3 passages by Etest method
[10] = test system: Pseudomonas aeruginosa; assay: Antimicrobial activity against mucA::lox, mutS::lox-deficient Pseudomonas aeruginosa PAOMSAA biofilm harboring nfxB T77C mutant gene selected at 4 ug/ml of azithromycin after 3 passages by Etest method
[11] = test system: Pseudomonas aeruginosa; assay: Antimicrobial activity against mutS::lox-deficient Pseudomonas aeruginosa PAOMSA biofilm harboring nfxB G539A mutant gene selected at 4 ug/ml of azithromycin after 6 passages by Etest method
[12] = test system: Pseudomonas aeruginosa; assay: Antimicrobial activity against nfxB gene-deficient Pseudomonas aeruginosa PAONB biofilm by Etest method
[13] = test system: Pseudomonas aeruginosa; assay: Antimicrobial activity against mutS::lox-deficient Pseudomonas aeruginosa PAOMSB biofilm harboring nfxB T562C mutant gene selected at 4 ug/ml of azithromycin after 4 passages by Etest method
[14] = test system: Pseudomonas aeruginosa; assay: Antimicrobial activity against mutS::lox-deficient Pseudomonas aeruginosa PAOMSB biofilm harboring nfxB C116T mutant gene selected at 4 ug/ml of azithromycin after 5 passages by Etest method
[15] = test system: Pseudomonas aeruginosa; assay: Antimicrobial activity against mucA::lox, mutS::lox-deficient Pseudomonas aeruginosa PAOMSAB biofilm harboring nfxB T86C mutant gene selected at 4 ug/ml of azithromycin after 2 passages by Etest method
[16] = test system: Pseudomonas aeruginosa; assay: Antimicrobial activity against Pseudomonas aeruginosa PAO1 A biofilm harboring deletion mutation at nucleotide 231-244 in nfxB gene selected at 1 ug/ml of azithromycin after 4 passages by Etest method
[17] = test system: Pseudomonas aeruginosa; assay: Antimicrobial activity against mutS::lox,mexD::lox-deficient Pseudomonas aeruginosa PAOMSMxD biofilm by Etest method
[18] = test system: Pseudomonas aeruginosa; assay: Antimicrobial activity against mutS::lox,nfxB gene-deficient Pseudomonas aeruginosa PAOMSNB biofilm by Etest method
[19] = test system: Pseudomonas aeruginosa; assay: Antimicrobial activity against mutS::lox-deficient Pseudomonas aeruginosa PAOMSB biofilm harboring nfxB T41C mutant gene selected at 4 ug/ml of azithromycin after 3 passages by Etest method
[20] = test system: Pseudomonas aeruginosa; assay: Antimicrobial activity against mutS::lox-deficient Pseudomonas aeruginosa PAOMSA biofilm harboring nfxB G461A mutant gene selected at 4 ug/ml of azithromycin after 5 passages by Etest method
[21] = test system: Pseudomonas aeruginosa; assay: Antimicrobial activity against mutS::lox-deficient Pseudomonas aeruginosa PAOMSB biofilm harboring deletion od C534 in nfxB mutant gene selected at 4 ug/ml of azithromycin after 2 passages by Etest method
[22] = test system: Pseudomonas aeruginosa; assay: Antimicrobial activity against mucA::lox, mutS::lox-deficient Pseudomonas aeruginosa PAOMSA biofilm by Etest method
[23] = test system: Pseudomonas aeruginosa; assay: Antimicrobial activity against Pseudomonas aeruginosa PAO1 A biofilm harboring nfxB T248C mutant gene selected at 4 ug/ml of azithromycin after 4 passages by Etest method
[24] = test system: Pseudomonas aeruginosa; assay: Antimicrobial activity against mucA::lox, mutS::lox-deficient Pseudomonas aeruginosa PAOMSAB biofilm harboring nfxB C89T mutant gene selected at 4 ug/ml of azithromycin after 6 passages by Etest method
[25] = test system: Pseudomonas aeruginosa; assay: Antimicrobial activity against mucA::lox, mutS::lox-deficient Pseudomonas aeruginosa PAOMSAB biofilm harboring nfxB T544C mutant gene selected at 4 ug/ml of azithromycin after 1 passages by Etest method
[26] = test system: Pseudomonas aeruginosa; assay: Antimicrobial activity against mucA::lox-deficient Pseudomonas aeruginosa PAOMA biofilm by Etest method
[27] = test system: Pseudomonas aeruginosa; assay: Antimicrobial activity against mucA::lox-deficient Pseudomonas aeruginosa PAOMAA biofilm harboring nfxB C25T mutant gene selected at 1 ug/ml of azithromycin after 2 passages by Etest method
[28] = test system: Pseudomonas aeruginosa; assay: Antimicrobial activity against Pseudomonas aeruginosa PAO1 biofilm by Etest method
[29] = test system: Pseudomonas aeruginosa; assay: Antimicrobial activity against mutS::lox-deficient Pseudomonas aeruginosa PAOMSA biofilm harboring nfxB T86C mutant gene selected at 4 ug/ml of azithromycin after 3 passages by Etest method
[30] = test system: Pseudomonas aeruginosa; assay: Antimicrobial activity against mutS::lox-deficient Pseudomonas aeruginosa PAOMSA biofilm harboring nfxB T533C mutant gene selected at 4 ug/ml of azithromycin after 2 passages by Etest method
[31] = test system: Pseudomonas aeruginosa; assay: Antimicrobial activity against mutS::lox-deficient Pseudomonas aeruginosa PAOMS biofilm by Etest method
[32] = test system: Pseudomonas aeruginosa; assay: Antimicrobial activity against mutS::lox-deficient Pseudomonas aeruginosa PAOMSB biofilm harboring nfxB T77C mutant gene selected at 4 ug/ml of azithromycin after 6 passages by Etest method
[33] = test system: Pseudomonas aeruginosa; assay: Antimicrobial activity against mexD::lox-deficient Pseudomonas aeruginosa PAOMxD biofilm by Etest method

Measured: MIC

O=C(O)c1cn(C2CC2)c2cc(N3CCNCC3)c(F)cc2c1=O [CIPROFLOXACIN]
0.094 µg/mL: [17]
1 µg/mL: [2] | [11] | [12] | [18]
1.5 µg/mL: [14]
3 µg/mL: [1] | [5] | [6] | [7] | [8] | [9] | [10] | [15] | [16]
0.75 µg/mL: [13]
4 µg/mL: [3] | [4]

C[C@@H](O)[C@H]1C(=O)N2C(C(=O)O)=C(SCCNC=N)C[C@H]12 [IMIPENEM ANHYDROUS]
0.25 µg/mL: [1] | [3] | [5] | [8] | [11] | [29] | [15]
1.5 µg/mL: [20] | [22] | [28] | [31] | [33] | [17]
0.5 µg/mL: [32] | [18]
1 µg/mL: [4] | [19] | [21] | [25] | [10] | [26] | [13]
0.19 µg/mL: [2] | [12]
0.38 µg/mL: all other assays above

NC[C@H]1O[C@H](O[C@H]2[C@H](O)[C@@H](O[C@H]3O[C@H](CO)[C@@H](O)[C@H](N)[C@H]3O)[C@H](N)C[C@@H]2N)[C@H](N)C[C@@H]1O [TOBRAMYCIN]
0.19 µg/mL: [8]
0.25 µg/mL: [23] | [12]
0.38 µg/mL: [1] | [5] | [27] | [16]
2 µg/mL: [17]
1.5 µg/mL: [20] | [22] | [10] | [26] | [28] | [31] | [13] | [33]
0.75 µg/mL: [9] | [30]
0.5 µg/mL: [2] | [6] | [7] | [29] | [14] | [15] | [18]
1 µg/mL: all other assays above

COLISTIN
1 µg/mL: [1] | [24] | [9] | [27]
0.5 µg/mL: [32]
1.5 µg/mL: [23] | [8] | [11] | [12] | [14] | [18]
3 µg/mL: [2] | [7] | [25] | [13]
2 µg/mL: all other assays above
